The source of these data is patent publication US6436952B1, “Benzonaphthyridine-N-oxides comprising a PDE3 and PDE4 inhibiting activity” (BYK Gulden Lomberg Chemische Fabrik GmbH, priority 1998, dated 2002).

As usually defined, the melting point is the temperature of the solid-liquid transition.

One data set concerns the target T1, PDE3 (cGMP-inhibited) (Homo sapiens, UniProt Q14432).
T1 construct: were investigated in homogenates of human blood platelets; from tissue; host or cells: homogenate of human blood platelets
As to the kind of experiment: Inhibition of PDE isoenzymes: PDE3 in homogenates of human blood platelets. The format is biochemical. The following applies: cAMP as substrate, read-out: PDE3 [-log IC50, mol/l] (converted). As for the experimental part:
(§1) The PDE activity was determined according to Thompson et al. (1) with some modifications (2). The test samples contained 40 mM tris HCl (pH 7.4), 5 mM MgCl2, 0.5 μM cAMP or cGMP, [^3H]cAMP or [^3H]cGMP (about 50 000 cpm/sample), the PDE isoenzyme-specific additions described in greater detail below, the indicated concentrations of inhibitor and an aliquot of the enzyme solution in a total sample volume of 200 μl. […] After preincubation at 37° C. for 5 minutes, the reaction was started by addition of the substrate (cAMP or cGMP). The samples were incubated at 37° C. for a further 15 min. The reaction was terminated by addition of 50 μl of 0.2N HCl. After cooling on ice for 10 minutes and addition of 25 μg of 5′-nucleotidase (snake venom from Crotalus atrox), the mixture was again incubated at 37° C. for 10 min and the samples were then applied to QAE Sephadex A-25 columns. The columns were eluted with 2 ml of 30 mM ammonium formate (pH 6.0). The radioactivity of the eluate was measured and corrected by the corresponding blank values. The proportion of hydrolyzed nucleotide in no case exceeded 20% of the original substrate concentration. […]
(§2) The lC50 values were determined from the concentration-inhibition curves by nonlinear regression using the GraphPad InPlot™ program (GraphPad Software Inc., Philadelphia, USA).

Another data set concerns the target PDE4 (cAMP-specific). The experiment in a line: Inhibition of PDE isoenzymes: PDE4 in cytosol of human polymorphonuclear leukocytes. The data set is classed as biochemical. The settings on record: cytosol of human PMNL, cAMP as substrate, motapizone (1 μM) present. Here is the method: as §1, §2

T1 sequence (Q14432 whole entry): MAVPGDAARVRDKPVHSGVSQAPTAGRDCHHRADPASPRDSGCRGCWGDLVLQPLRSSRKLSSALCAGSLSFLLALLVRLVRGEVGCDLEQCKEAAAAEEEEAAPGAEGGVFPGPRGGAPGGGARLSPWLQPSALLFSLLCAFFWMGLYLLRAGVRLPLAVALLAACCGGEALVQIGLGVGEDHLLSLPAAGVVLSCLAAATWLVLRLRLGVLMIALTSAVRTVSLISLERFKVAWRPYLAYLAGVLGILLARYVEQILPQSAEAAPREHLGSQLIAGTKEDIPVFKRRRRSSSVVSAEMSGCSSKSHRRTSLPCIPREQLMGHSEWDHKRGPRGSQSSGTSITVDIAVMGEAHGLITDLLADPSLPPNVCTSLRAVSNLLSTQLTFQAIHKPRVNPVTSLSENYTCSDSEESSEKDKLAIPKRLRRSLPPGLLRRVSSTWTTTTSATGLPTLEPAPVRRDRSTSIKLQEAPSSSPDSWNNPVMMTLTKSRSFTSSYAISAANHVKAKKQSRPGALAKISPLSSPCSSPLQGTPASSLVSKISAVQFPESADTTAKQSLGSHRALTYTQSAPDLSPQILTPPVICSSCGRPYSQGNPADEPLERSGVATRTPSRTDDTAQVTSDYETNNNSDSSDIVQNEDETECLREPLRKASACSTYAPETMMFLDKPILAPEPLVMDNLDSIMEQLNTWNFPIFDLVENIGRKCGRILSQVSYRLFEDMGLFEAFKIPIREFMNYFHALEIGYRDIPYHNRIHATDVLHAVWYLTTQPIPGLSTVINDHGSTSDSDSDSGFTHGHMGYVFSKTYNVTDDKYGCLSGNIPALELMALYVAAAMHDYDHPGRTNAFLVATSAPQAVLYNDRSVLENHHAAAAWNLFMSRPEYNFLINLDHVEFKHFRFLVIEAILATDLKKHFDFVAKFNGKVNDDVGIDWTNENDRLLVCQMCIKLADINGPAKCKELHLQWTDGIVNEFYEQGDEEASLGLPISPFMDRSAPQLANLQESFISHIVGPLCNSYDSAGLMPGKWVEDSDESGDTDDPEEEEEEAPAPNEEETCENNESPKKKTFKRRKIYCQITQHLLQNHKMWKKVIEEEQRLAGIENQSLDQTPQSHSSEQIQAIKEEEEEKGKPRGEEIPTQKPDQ

`CCOc1cc2c(cc1OC)C(c1ccc(-c3nnn(CC)n3)cc1)=NC1CC[N+](C)([O-])CC21` (stereo not drawn) [Compound 1, cis-9-Ethoxy-8-methoxy-2-methyl-6-[4-(2H-2-ethyltetrazol-5-yl)phenyl]-1,2,3,4,4a,10b-hexahydrobenzo[c][1,6]naohthyridine N-2-Oxide]: the melting point lay in the range of 168 to 170 °C. Also, at PDE3 (cGMP-inhibited), the IC50 is 776 nM. Further, the “PDE4 [-log IC50, mol/l]” value on PDE4 (cAMP-specific) is reported as 7.53 -log IC50, mol/l.
